Measured values published in US20230141965A1, “TREATMENT OF INFECTIOUS DISEASES” (Durect Corporation, priority 2020, published 2023).

What was measured:
C57BL/6J mice = experiment: Acute organ injury in mice challenged with lipopolysaccharide (LPS); assay type: in vivo; details: for health of kidney, lung, and liver tissues (sections stained with hematoxylin and eosin, light microscope): C57BL/6J mice, 50 mg/kg i.p. two hours before i.v. LPS 5 mg/kg, tissues collected at day 3, FIG. 1
Procedure: C57BL/6J mice, 21 week old, received an i.p. injection of 25HC3S sodium salt (50 mg/kg) or vehicle. Two hours later, mice were challenged with an intravenous injection of lipopolysaccharide (LPS) at 5 mg/kg. For vehicle-treated mice, the tissues, liver, lung, and kidney, were collected right before when animals met all criteria to be sacrificed. For mice treated with 25HC3S sodium salt, tissues were collected at the day 3, when 80% of vehicle-treated mice died. The tissue sections were stained with hematoxylin and eosin, examined under light microscope with magnification x 100.

mice = experiment: Acute organ injury in mice given acetaminophen (APAP) injection; assay type: in vivo; details: for kidney, lung, and liver tissues: mice, 25 mg/kg with APAP injection (600 mg/kg APAP for 24hr), FIG. 2
Procedure: Normal: normal mice without treatment; Control: mice with 10% glucose and acetaminophen (APAP) injection (600 mg/kg APAP for 24hr); PG: mice with vehicle and APAP injection (600 mg/kg APAP for 24hr); PG+25HC3S: mice with 25HC3S (25 mg/kg) and APAP injection.

SMILES	health of kidney, lung, and liver tissues (sections stained with hematoxylin and eosin, light microscope) (C57BL/6J mice)	kidney, lung, and liver tissues (mice)	health of kidney, lung, and liver tissues (sections stained with hematoxylin and eosin, light microscope) (C57BL/6J mice; listed as 25HCS)	protection of mice from lipopolysaccharide (LPS) (C57BL/6J mice; FIG. 1 legend, LPS 5 mg/kg i.v.)	protection of mice from acetaminophen (mice; FIG. 2 legend, 600 mg/kg APAP)
C[C@H](CCCC(C)(C)O)[C@H]1CC[C@H]2[C@@H]3CC=C4CC(OS(=O)(=O)[O-])CC[C@]4(C)[C@H]3CC[C@]12C.[Na+] (stereo partly drawn) [25HC3S sodium salt, 5-cholesten-3, 25-diol, 3-sulfate]	improved the health of kidney, lung, and liver tissues	improved kidney, lung, and liver tissues			
C[C@H](CCCC(C)(C)O)[C@H]1CC[C@H]2[C@@H]3CC=C4C[C@@H](OS(=O)(=O)[O-])CC[C@]4(C)[C@H]3CC[C@]12C.[Na+] [25HC3S, 5-cholesten-3, 25-diol, 3-sulfate]		improved kidney, lung, and liver tissues	improved kidney, lung, and liver tissues	protected mice from lipopolysaccharide (LPS)	protected mice from acetaminophen
